This is an account of results in patent US6716628B2, “Chondrogenesis promoters and indolin-2-one derivatives” (Chugai Seiyaku Kabushiki Kaisha, priority 1999, dated 2004).

Assay [1] concerns rabbit osteoarthritis model. The experiment in a line: Pathology suppressing effect in a rabbit osteoarthritis model. The assay is classed as in vivo. Particulars: 3.0 mmol/L, vs solvent alone. The procedure: Rabbit osteoarthritis model was prepared using 12-week-old male NZW rabbits (Kitayama Labes Co., Ltd.), and performing partial menisectomy in right knee, and excision of the lateral collateral ligament and sesamoid ligament, according to the method of Colombo et al. (Arthritis Rheum. 26(7):875-886, 1983). Beginning on the 7th day after the operation, 500 μL of a 50% dimethylsulfoxide (DMSO) physiological saline solution (DMSO: Junsei Chemical Corp., physiological saline: Otsuka Pharmaceutical Corp.) or 3.0 mmol/L of compound A solution was intraarticularly administered once a day into the right knee joint for a period of 3 weeks. The daily dosage of compound A was 816.8 μg.
On the day following the day of final administration, the right femoral distal and crural proximal sections were taken, and the femur was immersed overnight in 2% paraformaldehyde-2.5% glutaraldehyde fixing solution (both by Wako Pure Chemical Industries) for fixation, while the crus was immersed for one week in 20% neutral buffered formalin (Wako Pure Chemical Industries) for fixation.
After post-fixation of the femoral distal section with 1% osmium solution (Wako Pure Chemical Industries), it was dipped in an increasing ethanol series for dehydrogenation, and then substituted with isoamyl acetate and subsequently dried with a critical point drying apparatus (Hitachi Co., Ltd.). The dried tissue surface was coated with gold using an ion sputter coating apparatus (Eiko Corp.), and the femoral condyle cartilage surface was observed using a scanning electron microscope (Hitachi Co., Ltd.) (FIGS. 15A and 15B). The area of the damaged sections of the articular cartilage in the electron photomicrograph was measured using IPAP image analysis software (Sumika Technoservice Co., Ltd.), and judged on the scale shown in Table 11 below.
The proximal region of tibia was trimmed with a band saw (EXAKT Corp.) and then demineralized for 4 weeks with 20% EDTA-4Na solution (pH 7.4, Wako Pure Chemical Industries). […]

The test system of assay [2] is rat primary culture articular chondrocytes. Description: Uptake of 35S-labeled sulfuric acid into glycosaminoglycan (cartilage matrix synthesis). The assay is classed as cell-based. Conditions: 10 μmol/L of compound, vs ethanol 1% final concentration control solvent. From the text: Articular chondrocytes were trimmed from the femoral knee joint of 6-week-old male SD rats (Nihon SLC Corp.) using a scalpel, and then digested in 0.3% collagenase (WORTHINGTON Corp.) and cultivated (Calcif. Tissue Int. 19:179-187,1975).
The isolated articular chondrocytes were used to measure glycosaminoglycan synthesis in the cartilage matrix by measurement of the uptake of ^35S-labeled sulfuric acid (Amersham Co., Ltd.) into glycosaminoglycan. Specifically, the articular chondrocytes were cultured in a 96-well cell culturing plate (FALCON Corp.) to a cell density of 10,000 per well. […]
When the chondrocytes reached confluency, the medium was exchanged with one having a serum concentration of 0.3% and culturing was carried out overnight, after which the medium was exchanged with the same type also containing 10 μmol/L of compound A, and then after 3 hours, ^35S-labeled sulfuric acid (Amersham Co., Ltd.) was added at 0.5 μCi per well and culturing was carried out for 24 hours. […] The sample was then filtered with glass fiber filter paper (Toyo Filter Paper Corp.), the filter paper was washed 3 times with 2 mL of 1% cetylpyridinium chloride (20 mmol/L), one each was placed in a liquid scintillation counting vial (PACKARD Corp.), 10 mL of scintillator (Nacalai Tesque Corp.) was poured in, and the radioactivity was measured with a liquid scintillation counter (PACKARD Corp.).

Where [3] appears, read: 500 μL intraarticular once a day for 3 weeks from day 7 after operation.

On to `CCOC(CN1C(=O)[C@](CC(=O)Nc2ccc(C)cc2)(NC(=O)Nc2ccc(C)cc2)c2ccccc21)OCC` [Compound A, (+)-1-(2,2-diethoxyethyl)-3-((4-methylphenyl)aminocarbonylmethyl)-3-(N′-(4-methylphenyl)ureido)indolin-2-one], for which, in assay [1] (setting [3]), the “medium grade lesion area of articular cartilage (scanning electron microscope)” value is “significantly smaller area of damage” and the “total lesion area of articular cartilage (scanning electron microscope)” value was “significantly smaller area of damage”. Moreover, the “total histological scores, except for the loss of superficial layer” value in assay [1] (500 μL intraarticular once a day for 3 weeks, Safranin O stained tibia sections) is given as “significantly lower”. In addition, the “uptake of 35S-labeled sulfuric acid” value in assay [2] is “significantly increased”.
